The values below come from ChEMBL document CHEMBL3120157, “Structures and solution conformational dynamics of stylissamides G and H from the Bahamian sponge Stylissa caribica” (J Nat Prod, 2014).

Residues, ends and D or L forms follow the SMILES beside them.

One may read the EC50 as the concentration that produces a half-maximal response.

For this experiment, the system named is HCT-116. Put plainly: Cytotoxicity against human HCT116 cells assessed as cell viability by MTS assay. In kind it is functional, cell-based. A general note: Tetrazolium assays rely on reduction of a dye to a coloured formazan, in cell work by metabolically active cells.

Take `CC[C@H](C)[C@@H]1NC(=O)[C@@H]2CCCN2C(=O)[C@H](Cc2c[nH]c3ccccc23)NC(=O)[C@@H]2CCCN2C(=O)[C@H](C(C)C)NC(=O)[C@H](Cc2ccccc2)NC(=O)[C@H](CO)NC1=O` (cyclo(FVPWPIS)): the EC50 is 5.7 µM.

Regarding `CC[C@H](C)[C@@H]1NC(=O)[C@H](CC(C)C)NC(=O)[C@@H]2CCCN2C(=O)[C@H](Cc2ccccc2)NC(=O)[C@@H]2CCCN2C(=O)[C@H](Cc2ccccc2)NC(=O)[C@@H]2CCCN2C1=O` (cyclo(FPFPLIP)), the concentration giving a half-maximal response (EC50) is > 200 µM.
